Experimental data from patent US7419976B2, “Diazepanes derivatives useful as IFA inhibitors” (Novartis AG, priority 2003, dated 2008).

Assays:
LFA-1/ICAM-1 = biological target: T1, LFA-1/ICAM-1 (Homo sapiens, UniProt P20701); test: Cell free assay: binding of soluble human ICAM-1 to immobilized human LFA-1; details: immobilized human LFA-1, biotinylated ICAM-1, read-out: IC50, inhibition of adhesion of LFA-1 to ICAM-1
T1 construct: endogenous in cells; ICAM-1-Cκ fusion: made in house in the baculovirus system
T1 sequence (P20701 26-1170): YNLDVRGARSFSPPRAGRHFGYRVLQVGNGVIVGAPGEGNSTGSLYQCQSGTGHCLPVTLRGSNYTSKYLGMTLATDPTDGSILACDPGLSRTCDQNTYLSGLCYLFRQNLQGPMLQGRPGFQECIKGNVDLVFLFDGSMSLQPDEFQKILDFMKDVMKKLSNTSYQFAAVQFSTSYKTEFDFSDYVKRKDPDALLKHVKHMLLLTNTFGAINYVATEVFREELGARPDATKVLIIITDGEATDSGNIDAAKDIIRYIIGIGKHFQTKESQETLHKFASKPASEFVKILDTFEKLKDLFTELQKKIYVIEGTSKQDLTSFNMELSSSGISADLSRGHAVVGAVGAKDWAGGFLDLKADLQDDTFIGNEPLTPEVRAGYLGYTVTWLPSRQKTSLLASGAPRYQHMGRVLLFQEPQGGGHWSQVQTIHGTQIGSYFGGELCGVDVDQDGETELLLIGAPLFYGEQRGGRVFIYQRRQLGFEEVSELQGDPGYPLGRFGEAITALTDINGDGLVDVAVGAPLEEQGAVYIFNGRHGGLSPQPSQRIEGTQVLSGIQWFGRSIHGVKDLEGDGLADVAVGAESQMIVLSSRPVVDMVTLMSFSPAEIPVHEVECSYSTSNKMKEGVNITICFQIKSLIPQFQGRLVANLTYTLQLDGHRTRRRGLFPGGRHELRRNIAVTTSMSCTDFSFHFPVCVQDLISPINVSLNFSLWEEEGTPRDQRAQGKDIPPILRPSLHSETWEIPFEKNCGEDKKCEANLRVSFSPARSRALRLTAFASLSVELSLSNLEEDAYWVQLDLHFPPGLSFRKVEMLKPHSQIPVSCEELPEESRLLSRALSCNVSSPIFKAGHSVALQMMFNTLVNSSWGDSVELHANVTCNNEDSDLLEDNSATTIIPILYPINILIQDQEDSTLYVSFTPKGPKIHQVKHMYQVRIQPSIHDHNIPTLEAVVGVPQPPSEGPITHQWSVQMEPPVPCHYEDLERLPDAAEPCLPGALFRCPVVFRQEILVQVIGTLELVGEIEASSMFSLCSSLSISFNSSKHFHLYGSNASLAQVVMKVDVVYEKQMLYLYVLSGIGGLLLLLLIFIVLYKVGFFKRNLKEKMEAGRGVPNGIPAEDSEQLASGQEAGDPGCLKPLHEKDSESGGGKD
T1 sequence (P05107 23-769 partner): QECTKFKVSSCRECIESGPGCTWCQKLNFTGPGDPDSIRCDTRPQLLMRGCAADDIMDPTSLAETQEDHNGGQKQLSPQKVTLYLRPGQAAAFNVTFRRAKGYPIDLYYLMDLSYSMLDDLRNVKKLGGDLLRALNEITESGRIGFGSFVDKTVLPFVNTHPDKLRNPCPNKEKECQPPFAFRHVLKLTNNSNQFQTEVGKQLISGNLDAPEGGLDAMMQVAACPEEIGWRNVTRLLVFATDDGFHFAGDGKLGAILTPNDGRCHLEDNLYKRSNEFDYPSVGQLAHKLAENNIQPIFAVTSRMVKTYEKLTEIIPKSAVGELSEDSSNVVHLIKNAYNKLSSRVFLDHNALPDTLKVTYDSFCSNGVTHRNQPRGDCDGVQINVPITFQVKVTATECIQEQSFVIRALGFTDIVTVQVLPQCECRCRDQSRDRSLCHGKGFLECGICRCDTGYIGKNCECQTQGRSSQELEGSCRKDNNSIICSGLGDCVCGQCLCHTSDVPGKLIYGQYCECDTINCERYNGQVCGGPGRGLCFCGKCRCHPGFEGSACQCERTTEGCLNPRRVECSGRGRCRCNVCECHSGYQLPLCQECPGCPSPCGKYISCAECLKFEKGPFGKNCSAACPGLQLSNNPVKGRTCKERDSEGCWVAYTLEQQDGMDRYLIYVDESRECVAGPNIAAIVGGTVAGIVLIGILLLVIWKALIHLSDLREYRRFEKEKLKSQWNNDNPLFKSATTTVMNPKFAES
Experimental: The assay determines the binding of soluble human ICAM-1 to immobilized human LFA-1. LFA-1 is purified from JY cells, a human lymphoblastoid B cell-line, by immunoaffinity chromatography analogously as described by Dustin et al., J. Immunol. 148, 2654-2663, 1992. ICAM-1 mouse Cκ fusion protein (ICAM-1) is produced using the baculovirus system as described by Weitz-Schmidt et al., Anal. Biochem. 238, 184-190, 1996. Purified LFA-1 is diluted 1:20 in phosphate buffered saline (PBS) containing 2 mM MgCl2, pH 7.4 and coated onto microtiter plates (Nunc) at 37° for 3 hours. Plates are blocked with 1% heat-treated bovine serum albumin in PBS for 2 hours at 37° followed by a washing step using PBS, 2 mM MgCl2, 1% fetal calf serum, pH 7.4 (assay buffer). Compounds of the present invention (10 mM solution in DMSO) are diluted in assay buffer and added to the plates. Biotinylated recombinant ICAM-1 in assay buffer (6 μg/ml) is added and allowed to bind at 37° for one hour. After incubation, wells are washed with assay buffer. Streptavidin-peroxidase diluted 1:5000 in assay buffer is added and incubated for 45 min at 37°. […] The reaction is stopped after 20 minutes and bound ICAM-1 is determined by measuring the optical density at 405 nm in a microplate reader.

[1] = system: allergic contact dermatitis in mice; test: Test Example: inhibition of allergic contact dermatitis (ACD) in vivo, pinnal weight and MPO activity; details: oral single dose 0.01-10.0 mg/kg
Experimental: Groups of 8 female mice are sensitized epicutaneously with 50 μl of 2% oxazolone on the shaved ventral abdomen (day 1) and challenged with 10 μl of 0.2% oxazolone on the inner surface of the right ear (day 8). The unchallenged left ears serve as normal controls and dermatitis is evaluated from the difference in pinnal weight which is taken as a measure of inflammatory swelling (day 9). In addition, activity of myeloperoxidase (MPO) serving as a measure of leukocyte influx in ear homogenates are determined as described by Bradley et al., J. Invest. Dermatol; 78:206-209 (1982). The animals are treated orally 2 hours after challenge with the test compound of example 10. Activity is calculated as the percentage of inhibition of inflammatory auricular swelling and of MPO activity relative to animals treated with the vehicle alone. For comparison mice are treated intraperitoneally with 100 μl monoclonal anti-mouse LFA-1 antibody 1 hour before challenge and evaluated as described.

[2] = system: allergic contact dermatitis in NMRI mice; test: Allergic contact dermatitis (ACD) in vivo test system, oxazolone, auricular weight; details: p.o., 0.03 mg/kg, 2 hours after challenge
Experimental: Groups of 8 female NMRI mice are sensitized on the shaved abdomen with 50 μl of oxazolone (2% in acetone) and challenged with 10 μl of 0.2% oxazolone on the inner surface of the right ear 7 days later. The unchallenged left ears serve as normal controls and dermatitis is evaluated from the individual differences in auricular weights, which are taken as a measure of inflammatory swelling 24 hours after the challenge. Dermatitis is evaluated in test- and control groups. The test groups are treated with the test compounds orally (2 hours after challenge), the controls are treated similarly with the vehicles alone. For oral administration the compounds are administered in an oil in H2O emulsion. The data of the test- and the vehicle-treated control groups are statistically analysed by ANOVA followed by Dunnet T-test (normal distribution or data) or by H and U-test, respectively. […] For example, compound of Example 14 has an inhibiting effect in this assay of >30% when administered p.o. at a dose of 0.03 mg/kg.

| Compound | IC50 (LFA-1/ICAM-1) [nM] | inhibition of the inflammatory response ([1]; 2 hours after challenge) | inhibition of MPO activity versus inhibition of swelling ([1]; ear homogenates) | inhibiting effect in allergic contact dermatitis (auricular swelling) [2] [%] |
| --- | --- | --- | --- | --- |
| CC1CCN(C(Cc2cccc3ccccc23)C(N)=O)C(=O)C(c2cccc(F)c2)N1C(=O)Cc1ccc2c(c1)OCO2 [Example 13, (R)-2-[4-(2-Benzo[1,3]dioxol-5-yl-acetyl)-3,5-cis-3-(3-fluoro-phenyl)-5-methyl-2-oxo-[1,4]diazepan-1-yl]-3-naphthalen-1-yl-propionamide] | 430 | – | – | – |
| C[C@@H]1CCN([C@H](Cc2cccc3ccccc23)C(N)=O)C(=O)[C@H](c2ccc(F)c(Cl)c2)N1C(=O)Cc1ccc2ncccc2c1 [Example 10, (R)-2-[(3S,5R)-3-(3-Chloro-4-fluoro-phenyl)-5-methyl-2-oxo-4-(2-quinolin-6-yl-acetyl)-[1,4]diazepan-1-yl]-3-naphthalen-1-yl-propionamide] | – | 40-50% | Inhibition of swelling compared with inhibition of MPO activity is observed | – |
| C[C@@H]1CCN([C@H](Cc2cccc3ccccc23)C(N)=O)C(=O)[C@H](c2cccc(Cl)c2)N1C(=O)Cc1ccc2c(c1)OCO2 [Example 14, (R)-2-[(3S,5R)-4-(2-Benzo[1,3]dioxol-5-yl-acetyl)-3-(3-chloro-phenyl)-5-methyl-2-oxo-[1,4]diazepan-1-yl]-3-naphthalen-1-yl-propionamide] | 90 | – | – | > 30 |
